Activity calls are given as the source filed them. The calls are words filed in the database; no cut-off is given here.
How the values were obtained:
[1] = system: RAW264.7; assay: Antiinflammatory activity against LPS-induced NO production in mouse RAW264.7 cells assessed as reduction in nitrite level at 50 uM preincubated for 15 mins prior to LPS treatment by Griess method; type: functional
[2] = system: HEK293; assay: Inhibition of TNFalpha-induced NF-kappaB activity expressed in human HEK 293 cells at 50 uM after 6 hrs by luciferase reporter gene assay; type: cell-based
[3] = system: RAW264.7; assay: Antiinflammatory activity against LPS-induced NO production in mouse RAW264.7 cells assessed as reduction in nitrite level preincubated for 15 mins prior to LPS treatment by Griess method; type: functional, cell-based
[4] = Cytotoxicity in mouse RAW264.7 cells assessed as cell survival at 50 uM; type: cell-based; settings: read-out: Survival
[5] = Cytotoxicity in human HEK293 cells assessed as survival at 50 uM; type: cell-based; settings: read-out: Survival
[6] = (§1) Inhibition of TNFalpha-induced NF-kappaB activity expressed in human HEK 293 cells after 6 hrs by luciferase reporter gene assay; type: cell-based; settings: HEK293, 6 h
[7] = system: HEK293; assay: as §1; type: cell-based

| Structure (SMILES) | inhibition at 50 µM [1] [%] | inhibition [2] [%] | IC50 [3] [µM] | viability at 50 µM [4] [%] | viability at 50 µM [5] [%] | IC50 [6] [µM] | inhibition [7] |
| --- | --- | --- | --- | --- | --- | --- | --- |
| C/C=C(\C)C(=O)O[C@H]1C[C@@H](C)[C@]2(O)CC[C@](C)(/C=C3/OC(=O)C(CO)=C31)O2 (relative stereo) | 99.8 | 98.6 | 5.7 | 32.2 | 87.6 | 3.1 | – |
| CNC(=N)NCCC[C@H](N)C(=O)O | – | – | 25.1 | – | – | – | – |
| C=C(C)C(=O)O[C@H]1C[C@@H](C)[C@]2(O)CC[C@](C)(/C=C3/OC(=O)C(COC(C)=O)=C31)O2 | 99.2 | 95.8 | 6.6 | 31.1 | 95.1 | 5.2 | – |
| C/C=C(\C)C(=O)O[C@H]1C[C@@H](C)[C@]2(O)CC[C@](C)(/C=C3/OC(=O)C(COC(C)=O)=C31)O2 | 98 | 99.6 | 2 | 31.1 | 102 | 0.6 | – |
| C=C(C)C(=O)O[C@H]1C[C@@H](C)[C@]2(OC)CC[C@](C)(/C=C3/OC(=O)C(COC(C)=O)=C31)O2 | 98.8 | 94.2 | 1.5 | 6.3 | 39.1 | 13.6 | – |
| C[C@@H]1C[C@H](O)C2=C(CO)C(=O)O/C2=C/[C@@]2(C)CC[C@]1(O)O2 | 82.6 | 65.6 | 24.7 | 121 | 100 | 1.9 | – |
| C/C=C(\C)C(=O)O[C@H]1C[C@@H](C)[C@]2(OC)CC[C@](C)(/C=C3/OC(=O)C(COC(C)=O)=C31)O2 | 99 | 97.6 | 1.2 | 5.4 | 16.5 | 12.8 | – |
| CO[C@]12CC[C@](C)(/C=C3/OC(=O)C(CO)=C3[C@@H](O)C[C@H]1C)O2 | 84.2 | 33.4 | 28.1 | 134 | 91.9 | – | inactive |
| CC(=O)OCC1=C2/C(=C\[C@@]3(C)CC[C@](O)(O3)[C@H](C)C[C@@H]2O)OC1=O | 99.3 | 90.3 | 2.7 | 18 | 55 | 10.2 | – |
| C/C=C(\C)C(=O)O[C@H]1C[C@@H](C)[C@]2(OC)CC[C@](C)(/C=C3/OC(=O)C(CO)=C31)O2 | 99.8 | 94.1 | 2.4 | 15.6 | 9.3 | 1.6 | – |
| Cc1ccc(S(=O)(=O)/C=C/C#N)cc1 | – | – | – | – | – | 2 | – |
| Cc1ccc(S(=O)(=O)N[C@@H](Cc2ccccc2)C(=O)CCl)cc1 [TPCK] | – | – | – | – | – | 3.8 | – |
